In brackets after ≈: the same amount, converted by molar mass. One block for each molecule: values may come before it. Activity calls are given as the source filed them. The calls are words filed in the database; no cut-off is given here.
What was measured:
[1] = biological target: T1, Stimulator of interferon genes protein (Homo sapiens, UniProt Q86WV6); assay: Agonist activity at STING in human THP-1 cells harboring IRF-inducible luciferase reporter construct assessed as fold change in ISG signalling at 20 uM incubated for 12 hrs by Quanti-luc reagent based assay relative to control; format: cell-based; conditions: filed as agonist
[2] = test system: Stimulator of interferon genes protein (Homo sapiens), Q86WV6 [UNDEFINED MUTATION]; assay: Binding affinity to recombinant human STING H232 variant expressed in Escherichia coli BL21 (DE3) assessed as thermal stabilization by measuring change in melting temperature at 2 mM incubated for 30 mins by SYPRO orange dye based differential scanning fluorimetry assay
[3] = biological target: T1, Stimulator of interferon genes protein; assay: Agonist activity at STING in human THP-1 cells harboring IRF-inducible luciferase reporter construct assessed as increase in ISG signalling incubated for 12 hrs by Quanti-luc reagent based assay; format: cell-based
[4] = biological target: T2, Stimulator of interferon genes protein (Mus musculus) (UniProt Q3TBT3); assay: Agonist activity at STING in mouse RAW264.7 cells harboring IRF-inducible luciferase reporter construct assessed as increase in ISG signalling at 20 uM incubated for 12 hrs by Quanti-luc reagent based assay; format: cell-based; conditions: filed as agonist
T2 sequence (whole entry): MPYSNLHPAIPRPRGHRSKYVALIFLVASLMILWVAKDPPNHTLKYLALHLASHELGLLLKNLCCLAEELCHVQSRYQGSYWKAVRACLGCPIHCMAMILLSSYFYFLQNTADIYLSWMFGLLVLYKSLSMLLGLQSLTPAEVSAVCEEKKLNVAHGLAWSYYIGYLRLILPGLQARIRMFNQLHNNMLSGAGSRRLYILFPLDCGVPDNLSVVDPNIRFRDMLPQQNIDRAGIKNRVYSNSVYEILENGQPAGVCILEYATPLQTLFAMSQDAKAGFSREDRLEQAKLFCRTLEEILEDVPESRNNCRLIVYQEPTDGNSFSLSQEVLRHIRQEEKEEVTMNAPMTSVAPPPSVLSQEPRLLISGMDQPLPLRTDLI

[5] = biological target: T1, Stimulator of interferon genes protein; assay: Agonist activity at STING in cGAS knockout human THP-1 cells harboring IRF-inducible luciferase reporter construct assessed as increase in ISG signalling at 20 uM incubated for 12 hrs by Quanti-luc reagent based assay; format: cell-based; conditions: filed as agonist
[6] = Solubility of compound in PBS buffer at pH 7.4 at 3 mg incubated for 24 hrs under shaking condition by RP-HPLC analysis; format: physicochemical
[7] = AUC (0 to infinity) in Sprague-Dawley rat at 5 mg/kg, iv measured for 1440 mins by LC-MS/MS analysis; format: ADME, organism-based; parameters: dose 5 mg/kg, time 1440 min, route iv; conditions: in vivo
[8] = Oral bioavailability in Sprague-Dawley rat at 50 mg/kg measured for 1440 mins by LC-MS/MS analysis; format: ADME, organism-based; conditions: in vivo
4T1 [9] = assay: Antitumor activity against mouse 4T1 cells implanted in naive BALB/c mouse assessed as increase in Ki67-positive CD8 T cells in tumor at 80 mg/kg, po administered once every 5 days by FACS analysis (reference value: 14%); format: functional; conditions: time 5 day
4T1 [10] = assay: Antitumor activity against mouse 4T1 cells implanted in naive BALB/c mouse assessed as increase in Ki67-positive CD4 T cells in tumor at 80 mg/kg, po administered once every 5 days by FACS analysis (reference value: 4.4%); format: functional; conditions: time 5 day
[11] = Clearance in Sprague-Dawley rat at 50 mg/kg, po measured for 1440 mins by LC-MS/MS analysis; format: ADME, organism-based; conditions: in vivo
[12] = test system: Stimulator of interferon genes protein (Homo sapiens), Q86WV6 [UNDEFINED MUTATION]; assay: Binding affinity to recombinant human STING AQ variant expressed in Escherichia coli BL21 (DE3) assessed as thermal stabilization by measuring change in melting temperature at 0.1 mM incubated for 30 mins by SYPRO orange dye based differential scanning fluorimetry assay
CYP3A4 = CYP3A4 (Homo sapiens, UniProt P08684); assay: Inhibition of recombinant CYP3A4 (unknown origin) using midazolam as substrate assessed as reduction in substrate hydroxylation at 10 uM incubated for 5 mins in presence of NADPH by LC-MS/MS analysis relative to control; format: ADME; conditions: recombinant CYP3A4, probe midazolam
hERG = hERG (Homo sapiens, UniProt Q12809); assay: Inhibition of hERG expressed in HEK293 cells at 10 uM incubated for 5 mins by QPatch automated patch-clamp technique relative to control; format: toxicity, cell-based; conditions: HEK293 cells that express hERG
[13] = test system: Stimulator of interferon genes protein (Homo sapiens), Q86WV6 [UNDEFINED MUTATION]; assay: Binding affinity to recombinant human STING R232 variant expressed in Escherichia coli BL21 (DE3) assessed as thermal stabilization by measuring change in melting temperature at 0.1 mM incubated for 30 mins by SYPRO orange dye based differential scanning fluorimetry assay
[14] = Half life in Sprague-Dawley rat at 50 mg/kg, po measured for 1440 mins by LC-MS/MS analysis; format: ADME, organism-based; conditions: in vivo
[15] = Aqueous solubility of compound at 3 mg incubated for 24 hrs under shaking condition by RP-HPLC analysis; format: physicochemical; conditions: water
[16] = Lipophilicity, logP of compound by RP-HPLC analysis; format: physicochemical
[17] = Half life in Sprague-Dawley rat at 5 mg/kg, iv measured for 1440 mins by LC-MS/MS analysis; format: ADME, organism-based; conditions: in vivo
[18] = Volume of distribution at steady state in Sprague-Dawley rat at 50 mg/kg, po measured for 1440 mins by LC-MS/MS analysis; format: ADME, organism-based; conditions: in vivo, 24 h
[19] = Volume of distribution at steady state in Sprague-Dawley rat at 5 mg/kg, iv measured for 1440 mins by LC-MS/MS analysis; format: ADME, organism-based; conditions: in vivo, read-out: Vdss
[20] = Clearance in Sprague-Dawley rat at 5 mg/kg, iv measured for 1440 mins by LC-MS/MS analysis; format: ADME, organism-based; conditions: in vivo
[21] = Permeability of the compound in PBS buffer incubated for 5 hrs by PAMPA-based LC-MS/MS analysis; format: ADME; conditions: read-out: permeability
[22] = Protein binding in plasma (unknown origin) assessed as unbound fraction at 2 uM incubated for 4 hrs under shaking condition by rapid equilibrium dialysis method; format: ADME, cell-free
[23] = Stability in rat liver microsomes assessed as parent compound remaining at 1 uM incubated for 2 hrs in presence of NADPH by LC-MS/MS analysis; format: ADME, Microsome; conditions: read-out: Stability
[24] = Stability in human plasma assessed as parent compound remaining at 1 uM incubated for 24 hrs in presence of NADPH by LC-MS/MS analysis; format: ADME, cell-free; conditions: read-out: Stability
[25] = Cmax in Sprague-Dawley rat at 50 mg/kg, po measured for 1440 mins by LC-MS/MS analysis; format: ADME, organism-based; parameters: time 1440 min, dose 50 mg/kg, route po; conditions: in vivo
[26] = AUC (0 to infinity) in Sprague-Dawley rat at 50 mg/kg, po measured for 1440 mins by LC-MS/MS analysis; format: ADME, organism-based; parameters: time 1440 min, dose 50 mg/kg, route po; conditions: in vivo

Chain of Stimulator of interferon genes protein (Homo sapiens), Q86WV6 [UNDEFINED MUTATION] (Q86WV6 whole entry, looked up, stated change not applied): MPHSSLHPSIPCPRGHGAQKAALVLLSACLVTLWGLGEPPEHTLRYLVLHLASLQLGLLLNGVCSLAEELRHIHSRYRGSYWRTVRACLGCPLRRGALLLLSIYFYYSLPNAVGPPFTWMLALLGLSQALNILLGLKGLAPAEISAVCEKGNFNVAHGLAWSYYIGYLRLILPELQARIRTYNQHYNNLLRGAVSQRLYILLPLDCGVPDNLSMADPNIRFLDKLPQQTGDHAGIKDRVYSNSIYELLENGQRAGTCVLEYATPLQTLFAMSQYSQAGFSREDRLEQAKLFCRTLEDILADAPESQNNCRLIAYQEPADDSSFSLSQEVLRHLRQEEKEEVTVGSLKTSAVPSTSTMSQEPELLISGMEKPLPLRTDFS
T1 sequence (Q86WV6 whole entry): as the sequence (Q86WV6 whole entry, looked up, stated change not applied) above
Chain of CYP3A4 (P08684 whole entry): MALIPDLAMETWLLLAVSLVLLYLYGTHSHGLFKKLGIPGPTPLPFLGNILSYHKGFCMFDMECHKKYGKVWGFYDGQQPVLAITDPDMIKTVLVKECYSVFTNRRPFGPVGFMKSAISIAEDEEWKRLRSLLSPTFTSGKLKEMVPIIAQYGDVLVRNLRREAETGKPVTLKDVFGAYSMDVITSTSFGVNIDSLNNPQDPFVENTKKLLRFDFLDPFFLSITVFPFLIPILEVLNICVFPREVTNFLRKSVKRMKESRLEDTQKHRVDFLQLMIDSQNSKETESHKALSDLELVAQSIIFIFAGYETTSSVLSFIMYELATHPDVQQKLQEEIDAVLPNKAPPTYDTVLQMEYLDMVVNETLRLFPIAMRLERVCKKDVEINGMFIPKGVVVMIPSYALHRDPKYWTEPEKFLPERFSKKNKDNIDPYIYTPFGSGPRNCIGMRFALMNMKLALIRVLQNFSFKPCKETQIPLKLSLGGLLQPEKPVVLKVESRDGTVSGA
Chain of hERG (Q12809 whole entry): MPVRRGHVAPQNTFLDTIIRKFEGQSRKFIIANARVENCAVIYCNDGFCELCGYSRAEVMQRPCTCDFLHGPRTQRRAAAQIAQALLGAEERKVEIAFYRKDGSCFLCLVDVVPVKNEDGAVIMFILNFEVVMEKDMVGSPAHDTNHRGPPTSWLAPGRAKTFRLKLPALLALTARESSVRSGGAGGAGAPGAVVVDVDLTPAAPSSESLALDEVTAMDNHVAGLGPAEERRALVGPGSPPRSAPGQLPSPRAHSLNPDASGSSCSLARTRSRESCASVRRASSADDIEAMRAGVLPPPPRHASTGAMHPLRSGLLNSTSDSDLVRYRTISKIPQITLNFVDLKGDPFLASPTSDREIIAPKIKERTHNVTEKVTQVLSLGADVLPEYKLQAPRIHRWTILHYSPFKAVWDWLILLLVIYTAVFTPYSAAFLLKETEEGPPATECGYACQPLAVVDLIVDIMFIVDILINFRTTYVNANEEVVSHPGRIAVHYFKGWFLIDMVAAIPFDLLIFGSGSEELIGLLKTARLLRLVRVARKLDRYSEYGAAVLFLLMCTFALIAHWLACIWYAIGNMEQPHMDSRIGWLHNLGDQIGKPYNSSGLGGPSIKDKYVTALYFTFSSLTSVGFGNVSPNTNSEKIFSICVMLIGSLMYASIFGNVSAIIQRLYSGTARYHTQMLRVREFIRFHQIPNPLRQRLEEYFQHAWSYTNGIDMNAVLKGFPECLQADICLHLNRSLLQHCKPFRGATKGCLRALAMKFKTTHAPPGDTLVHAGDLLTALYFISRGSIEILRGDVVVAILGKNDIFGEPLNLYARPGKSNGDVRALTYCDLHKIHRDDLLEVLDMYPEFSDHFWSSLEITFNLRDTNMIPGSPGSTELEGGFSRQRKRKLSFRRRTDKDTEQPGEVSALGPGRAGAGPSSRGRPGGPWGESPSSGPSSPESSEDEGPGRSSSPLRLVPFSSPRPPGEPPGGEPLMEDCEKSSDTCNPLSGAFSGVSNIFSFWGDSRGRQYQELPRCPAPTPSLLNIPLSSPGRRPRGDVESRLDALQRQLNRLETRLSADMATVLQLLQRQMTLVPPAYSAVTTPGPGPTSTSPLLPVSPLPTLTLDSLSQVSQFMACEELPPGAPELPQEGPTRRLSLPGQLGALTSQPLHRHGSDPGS

SMILES: CCCC(CC(=O)c1cc2cc(OC)c(OC)cc2[se]1)C(=O)O (racemic)
fold change (FC) [1]: 14
ΔTm [2]: -1.2 °C

SMILES: COCC(CC(=O)c1cc2cc(OC)c(OC)cc2[se]1)C(=O)O (racemic)
fold change (FC) [1]: 7
ΔTm [2]: 0.9 °C

fold change (FC) [1]: 18
ΔTm [2]: 4.7 °C
SMILES: CCC(CC(=O)c1cc2cc(OC)c(OC)cc2s1)C(=O)O (racemic)

SMILES: COc1cc2cc(C(=O)CC(C)(C)C(=O)O)[se]c2cc1OC
fold change (FC) [1]: 5
ΔTm [2]: -1.5 °C

SMILES: CCC(CC(=O)c1cc2cc(OC)c(OC)cc2[se]1)C(=O)O (racemic)
fold change (FC) [1]: 27
ΔTm [2]: 4.5 °C

SMILES: COc1ccc2[se]c(C(=O)CC(C)C(=O)O)cc2c1 (racemic)
ΔTm [2]: -0.3 °C

SMILES: COc1cc2cc(C(=O)C3CCC3C(=O)O)[se]c2cc1OC (racemic)
fold change (FC) [1]: 24
ΔTm [2]: 9.1 °C

SMILES: COc1cc2cc(C(=O)CCC(=O)O)[se]c2cc1OC
fold change (FC) [1]: 2
ΔTm [2]: -1.1 °C

SMILES: COc1cc2cc(C(=O)CC(C)C(N)=O)[se]c2cc1OC (racemic)
ΔTm [2]: -0.8 °C

ΔTm [2]: -0.1 °C
SMILES: CCC(CC(=O)c1cc2cc(OC)c(OC)cc2o1)C(=O)O (racemic)

SMILES: CCC(=O)C(C)CC(=O)c1cc2cc(OC)c(OC)cc2[se]1 (stereo not given)
fold change (FC) [1]: 15
ΔTm [2]: -0.2 °C

SMILES: CC(CC(=O)c1cc2cc3c(cc2[se]1)OCO3)C(=O)O (racemic)
ΔTm [2]: -0.5 °C

SMILES: COc1cc2cc(C(=O)CC(C)C(=O)O)[se]c2cc1OC (racemic)
EC50 [3]: 21.3 µM
Activity [4]: Active
fold change (FC) [1]: 15
Activity [5]: Active
ΔTm [2]: 2.7 °C

SMILES: COc1cc2cc(C(=O)C3CC3C(=O)O)[se]c2cc1OC (racemic)
fold change (FC) [1]: 7
ΔTm [2]: 6.2 °C

solubility thermodynamic at 24 h [6]: 300 µg/mL (≈ 1020 µM)
AUC(0-inf) [7]: 9800 ng·h/mL
bioavailability [8]: 58%
CL/F [11]: 15.2 mL/min/kg
ΔTm [12]: 23.3 °C
inhibition at 5 min, 10 µM (CYP3A4): 7.59%
ΔTm [13]: 9.1 °C
half-life [14]: 1.65 h
fold change (FC) [1]: 32
solubility thermodynamic at 24 h [15]: 6 µg/mL (≈ 20.4 µM)
ΔTm [2]: 3.9 °C
logP [16]: 1.5
half-life [17]: 1.71 h
Vdss [18]: 2.18 L/kg
Vd [19]: 1.28 L/kg
clearance [20]: 8.5 mL/min/kg
Papp at 5 h [21]: 1.7 ×10⁻⁶ cm/s
Fu [22]: 0.19%
remaining at 2 h, 1 µM [23]: 87%
remaining at 24 h, 1 µM [24]: 100%
Cmax [25]: 23300 ng/mL
AUC(0-inf) [26]: 56800 ng·h/mL
SMILES: COc1cc2cc(C(=O)CCC(=O)O)sc2cc1OC
Activity (4T1 [9]): 7.7%
Activity (4T1 [10]): 5.5%
inhibition at 5 min, 10 µM (hERG): 0.86%

SMILES: COc1cc2cc(C(=O)CC(C(=O)O)C(C)C)[se]c2cc1OC (racemic)
fold change (FC) [1]: 10
ΔTm [2]: -1.9 °C

SMILES: COc1ccc2cc(C(=O)CC(C)C(=O)O)[se]c2c1 (racemic)
ΔTm [2]: -0.1 °C
